Among the data in patent publication US11401286B2 (Tetra Discovery Partners, LLC, priority 2012, dated 2022) are IC50 values, retold here.

The assay concerns the target PDE4D7 (Homo sapiens (Human), UniProt Q08499).
The mark [1] stands for this setting: read-out: PDE4D7 IC50, PDE4D7 without asterisk.

By IC50 is commonly meant the concentration that inhibits the measured activity by half.

Where a name gives a salt, the structure may show the parent alone. Read-outs that look alike come from different tables or passages of the source.

PDE4D7, sequence (Q08499 other isoform, or with tags, fused parts or gaps): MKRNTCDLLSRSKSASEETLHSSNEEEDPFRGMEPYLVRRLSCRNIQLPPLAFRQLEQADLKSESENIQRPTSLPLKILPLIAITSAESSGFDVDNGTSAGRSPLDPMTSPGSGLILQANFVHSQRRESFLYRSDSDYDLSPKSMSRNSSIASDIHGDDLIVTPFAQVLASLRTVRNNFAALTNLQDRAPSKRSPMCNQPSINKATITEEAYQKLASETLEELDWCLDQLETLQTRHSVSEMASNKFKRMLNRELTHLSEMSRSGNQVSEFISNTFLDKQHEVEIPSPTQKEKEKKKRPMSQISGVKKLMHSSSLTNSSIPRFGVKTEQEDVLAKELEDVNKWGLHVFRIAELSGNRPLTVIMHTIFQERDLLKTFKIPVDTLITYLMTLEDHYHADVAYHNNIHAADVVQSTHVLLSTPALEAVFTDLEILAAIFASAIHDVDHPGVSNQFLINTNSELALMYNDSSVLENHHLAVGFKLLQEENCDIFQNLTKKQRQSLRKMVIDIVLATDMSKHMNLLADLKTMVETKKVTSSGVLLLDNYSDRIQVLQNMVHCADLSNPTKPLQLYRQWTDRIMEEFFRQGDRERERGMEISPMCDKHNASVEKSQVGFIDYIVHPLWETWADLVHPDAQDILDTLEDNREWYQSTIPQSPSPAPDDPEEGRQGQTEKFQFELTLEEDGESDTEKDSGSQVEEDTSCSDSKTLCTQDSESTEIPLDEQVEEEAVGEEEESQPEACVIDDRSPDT

`CCc1c(C)nc(-c2ccc(Cl)s2)nc1Nc1ccc(Cc2nc(C(=O)O)c[nH]2)cc1` [Example 306, 2-[[4-[[2-(5-Chloro-2-thienyl)-5-ethyl-6-methyl-pyrimidin-4-yl]amino]phenyl]methyl]-1H-imidazole-4-carboxylic acid]: the IC50 under setting [1] is over 1 µM.

As to `CCc1cc(Oc2ccc(CC(N)=O)cn2)nc(-c2cccc(Cl)c2)n1` [Example 183, 2-(6-((2-(3-Chlorophenyl)-6-ethylpyrimidin-4-yl)oxy)pyridin-3-yl)acetamide], the IC50 under setting [1] was over 1 µM.

`Cc1ccc(Cc2nc(-c3cccc(Cl)c3)nc3c2CCC3)cc1` [Example 69, 2-(3-Chlorophenyl)-4-(4-methylbenzyl)-6,7-dihydro-5H-cyclopenta[d]pyrimidine]: under setting [1], the IC50 was over 1 µM.

Consider `COC(=O)Cc1ccc(Nc2cc(N3CCCC3)nc3c2CCC3)cc1` [Example 237, Methyl 2-(4-((2-(pyrrolidin-1-yl)-6,7-dihydro-5H-cyclopenta[b]pyridin-4-yl)amino)phenyl)acetate hydrochloride], for which the IC50 under setting [1] was over 1 µM.

As to `OC[C@H]1CC[C@H](Nc2cc(-c3cccc(Cl)c3)nc3c2CCC3)CC1` [Example 93, Trans-4-((2-(3-Chlorophenyl)-6,7-dihydro-5H-cyclopenta[b]pyridin-4-yl)amino)cyclohexyl-methanol hydrochloride], the IC50 under setting [1] is over 1 µM.

For `OCCc1ccc(Nc2cc(-c3cccc(Cl)c3)nc3c2CCC3)cc1F` [Example 113, 2-(4-((2-(3-Chlorophenyl)-6,7-dihydro-5H-cyclopenta[b]pyridin-4-yl)amino)-2-fluorophenyl)ethanol hydrochloride], the IC50 under setting [1] was over 1 µM.

With `CCc1nc(Nc2ccc(CO)cc2)nc(-c2cccc(Cl)c2)n1` [Example 80, (4-((4-(3-Chlorophenyl)-6-ethyl-1,3,5-triazin-2-yl)amino)phenyl)methanol], the IC50 (read-out: PDE4D7 IC50) was under 1 µM.

For `O=C(O)COc1ccc(Nc2cc(-c3cccc(Cl)c3)nc3c2CCC3)cc1` [Example 4, 2-[4-[[2-(3-Chlorophenyl)-6,7-dihydro-5H-cyclopenta[b]pyridin-4-yl]amino]phenoxy]acetic acid], the IC50 (read-out: PDE4D7 IC50) is over 1 µM.

With `OCCc1ccc(Cc2cc(C(F)(F)F)nc(C3CCCC3)n2)cc1` [Example 231, 2-(4-((2-Cyclopentyl-6-(trifluoromethyl)pyrimidin-4-yl)methyl)phenyl)ethanol], under setting [1], the IC50 is over 1 µM.

For `O=S1(=O)CCCc2nc(C3CCCC3)nc(Cc3ccc(CCO)cc3)c21` [Example 288, 2-Cyclopentyl-4-(4-(2-hydroxyethyl)benzyl)-7,8-dihydro-6H-thiopyrano[3,2-d]pyrimidine 5,5-dioxide], the IC50 under setting [1] was under 1 µM.

`CC(CO)Oc1ccc(Nc2cc(-c3cccc(Cl)c3)nc3c2CCC3)cc1` (stereo not drawn) [Example 117, 2-(4-((2-(3-Chlorophenyl)-6,7-dihydro-5H-cyclopenta[b]pyridin-4-yl)amino)phenoxy)propan-1-ol hydrochloride]: the 50% inhibitory concentration (IC50) under setting [1] is over 1 µM.

On to `OCCc1ccc(Nc2cc(-c3cccc(Cl)c3)nc3c2CCC3)cc1` [Example 6, 2-[4-[[2-(3-Chlorophenyl)-6,7-dihydro-5H-cyclopenta[b]pyridin-4-yl]amino]phenyl]ethanol], for which the IC50 under setting [1] was over 1 µM.

As to `OCCc1ccc(Cc2cc(-c3cccc(Cl)c3)nc(C(F)(F)F)c2)cc1` [Example 143, 2-(4-((2-(3-Chlorophenyl)-6-(trifluoromethyl)pyridin-4-yl)methyl)phenyl)ethanol], under setting [1], the IC50 was over 1 µM.

In turn, `OCCc1ccc(Nc2ccnc(-c3cccc(Cl)c3)c2)cc1` [Example 84, 2-(4-((2-(3-Chlorophenyl)pyridin-4-yl)amino)phenyl)ethanol hydrochloride] yielded an IC50 of over 1 µM.

`C[C@H](O)Cc1ccc(Nc2cc(-c3cccc(Cl)c3)nc3c2CCC3)cc1` [Example 107, (S)-1-(4-((2-(3-Chlorophenyl)-6,7-dihydro-5H-cyclopenta[b]pyridin-4-yl)amino)phenyl)propan-2-ol]: under setting [1], the 50% inhibitory concentration (IC50) was over 1 µM.

Regarding `COC(=O)Cc1ccc(Cc2cc(C3CC3)nc(-c3cccc(Cl)c3)n2)cc1` [Example 208, Methyl 2-(4-((2-(3-chlorophenyl)-6-cyclopropylpyrimidin-4-yl)methyl)phenyl)acetate], the IC50 was over 1 µM.

As to `OCCc1cccc(Nc2cc(-c3cccc(Cl)c3)nc3c2CCC3)c1` [Example 102, 2-(3-((2-(3-Chlorophenyl)-6,7-dihydro-5H-cyclopenta[b]pyridin-4-yl)amino)phenyl)ethanol hydrochloride], the IC50 under setting [1] is over 1 µM.

Take `Clc1cccc(-c2nc3c(c(Nc4ccc(Cc5nn[nH]n5)cc4)n2)SCCC3)c1` [Example 313, 2-(3-Chlorophenyl)-N-[4-(2H-tetrazol-5-ylmethyl)phenyl]-7,8-dihydro-6H-thiopyrano[3,2-d]pyrimidin-4-amine]: under setting [1], the IC50 is under 1 µM.

As for `O=C(O)Cc1ccc(Nc2cc(C3CCCC3)nc(C(F)(F)F)c2)cc1` [Example 161, 2-(4-((2-Cyclopentyl-6-(trifluoromethyl)pyridin-4-yl)amino)phenyl)acetic acid], the IC50 under setting [1] is over 1 µM.

For the molecule `O=C(O)Cc1ccc(Nc2nc(-c3ccc(Cl)s3)nc3c2CCC3)cc1` [Example 9, 2-[4-[[2-(5-Chloro-2-thienyl)-6,7-dihydro-5H-cyclopenta[d]pyrimidin-4-yl]amino]phenyl]acetic acid], the IC50 under setting [1] is over 1 µM.

`CC(=O)NC(C(=O)O)c1ccc(Nc2nc(-c3ccc(Cl)s3)nc3c2CCC3)cc1` (stereo not drawn) [Example 11, 2-Acetamido-2-[4-[[2-(5-chloro-2-thienyl)-6,7-dihydro-5H-cyclopenta[d]pyrimidin-4-yl]amino]phenyl]acetic acid]: the IC50 under setting [1] is over 1 µM.

Take `OCCCc1ccc(Nc2cc(-c3cccc(Cl)c3)nc(C(F)(F)F)c2)cc1` [Example 147, 3-(4-((2-(3-Chlorophenyl)-6-(trifluoromethyl)pyridin-4-yl)amino)phenyl)propan-1-ol]: under setting [1], the IC50 is under 1 µM.

As for `NC(=O)Cc1ccc(Nc2cc(-c3ccco3)nc3c2CCC3)cc1` [Example 240, 2-(4-((2-(Furan-2-yl)-6,7-dihydro-5H-cyclopenta[b]pyridin-4-yl)amino)phenyl)acetamide hydrochloride], under setting [1], the IC50 was over 1 µM.

Regarding `N#CNC(=O)Cc1ccc(Nc2nc(-c3cccc(Cl)c3)nc3c2S(=O)(=O)CCC3)cc1` [Example 315, 2-[4-[[2-(3-Chlorophenyl)-5,5-dioxo-7,8-dihydro-6H-thiopyrano[3,2-d]pyrimidin-4-yl]amino]phenyl]-N-cyano-acetamide], the IC50 under setting [1] was under 1 µM.

As for `NC(=O)Cc1ccc(Nc2cc(-c3cc(Cl)cc(Cl)c3)nc3c2CCC3)cc1` [Example 157, 2-(4-((2-(3,5-Dichlorophenyl)-6,7-dihydro-5H-cyclopenta[b]pyridin-4-yl)amino)phenyl)acetamide hydrochloride], under setting [1], the IC50 is over 1 µM.

On to `OCCc1ccc(Nc2nc(C3CCCC3)nc3c2CCC3)cc1` [Example 217, 2-(4-((2-Cyclopentyl-6,7-dihydro-5H-cyclopenta[d]pyrimidin-4-yl)amino)phenyl)ethanol], for which, under setting [1], the IC50 is over 1 µM.

For the molecule `CCc1nc(Nc2ccc(C(N)=O)cc2)nc(-c2cccc(Cl)c2)n1` [Example 62, 4-(4-(3-chlorophenyl)-6-ethyl-1,3,5-triazin-2-ylamino)benzamide], the IC50 under setting [1] was under 1 µM.
